Results published in publication PMC12618397 (Clinical Pharmacokinetics, 2025).
Read-outs that look alike come from different tables or passages of the source.

Tests used:
[1] = format: in vivo, humans; conditions: final model
[2] = test system: plasma protein; conditions: cited from earlier work
[3] = cited from earlier work
[4] = test system: OATP1B; conditions: oral glyburide 1.25 mg, i.v. infusion of 600 mg rifampicin, over 24 h; cited from earlier work

In the case of `COc1ccc(Cl)cc1C(=O)NCCc1ccc(S(=O)(=O)NC(=O)NC2CCCCC2)cc1` [[^11C]glyburide], the “clearance CL=VB×ke” value [1] is reported as 2.84 L/h, the “kBP (transfer blood to pancreas)” value [1] is reported as 5.9 h⁻¹ and the “kBS (transfer blood to spleen)” value [1] is reported as 5.9 h⁻¹. The “kPB (transfer pancreas to blood)” value [1] was 138 h⁻¹, the “kSB (transfer spleen to blood)” value [1] was 131 h⁻¹ and the “kL1B (exchange rate liver to blood)” value ([1]; without rifampicin) was 20 h⁻^1. The “binding to plasma protein” value [2] was greater than 99%.
In the case of `COc1ccc(Cl)cc1C(=O)NCCc1ccc(S(=O)(=O)NC(=O)NC2CCCCC2)cc1` [glyburide], the “volume of distribution outside central compartment (previous estimates)” value ([3]; 95% CI 1.3–3.2 L derived from reported estimates) is given as 2 L, the “central volume of distribution” value ([3]; Rydberg et al.) is given as 3.63 L and the elimination rate ([3]; Rydberg et al.) is given as 1.59 h⁻^1. The “central volume of distribution” value ([3]; traditional PK modeling, blood samples) was 3.8 L and the “increase of plasma AUC vs baseline” value [4] was 125 ± 51.5%.
